Assay results from patent US6875766B2, “Use of riboflavin and flavin derivatives as chitinase inhibitors” (Bayer AG, priority 2000, dated 2005).

What was measured:
[1] = test system: Vibrio alginolyticus chitinase (Kyowa Medex); assay: Chitinase inhibitory activity against Vibrio alginolyticus chitinase; assay type: biochemical; details: at 100 μM (37° C.)
Procedure: (§1) The chitinase inhibitory activity was determined as already described [Omura, S., Arai, N., Yamaguchi, Y., Masuma, R., Iwai, Y., Namikoshi, M., Turberg, A., Kölbl, H., Shiomi, K., J. Antibiot., 53, 603-608 (2000)].

[2] = test system: Lucilia cuprina endochitinase; assay: Chitinase test with soluble extracts from Lucilia cuprina puppae; assay type: biochemical; details: cytosolic extract of late pupae, MUF-triacetylchitotriose substrate
Procedure: Chitinase test with soluble extracts from Lucilia cuprina puppae
Test animals: Cytosol of Lucilia cuprina
The substances, which are dissolved in DMSO, are provided on 384-well microtiter plates in a concentration of 2 mM, the first four columns being empty. The substances are diluted 1:40 with 100 mM NPP pH 7.0 (50 μM). 5 μl of each of these dilutions are transferred to a 384-well test plate, starting with column 5. Into the first two columns there are pipetted in each case as negative control, into the third and fourth column in each case 5 μl of 5×10^-6 M allosamidin in 2.5% DMSO in 100 mM NPP pH 7.0 5 μl 2.5% DMSO in 100 mM NPP pH 7.0 as positive control.
The substances are incubated for 20 minutes at room temperature with 2.5 μg of cytosolic extract of late Lucilia cuprina puppae in 10 μl of 100 mM sodium phosphate buffer pH 7.0 and 10 μl of 100 μM methylumbelliferyl (MUF-triacetylchitotriose). The reaction is quenched by addition of 25 μl of 0.5 M glycine buffer 2 M sodium hydroxide, pH 10.4. The inhibition is determined by measuring the relative fluorescence at an excitation of 360±40 nm and an emission of 460±40 nm. The test substances are evaluated in comparison with the inhibition of the enzyme by allosamidin. The inhibition of the release of MUF is a measure for the efficacy of the inhibitor. In subsequent tests, concentration series in the range of from 100 nM to 200 μM are tested, and the release of MUF is measured every 2 minutes before the reaction is quenched.
Compounds which lead to more than 50% inhibition of chitinase at maximum reaction velocity at 100 μM are assessed as effective.

[3] = test system: Periplaneta americana, third instar; assay: Injection test with Periplaneta larvae; assay type: in vivo; details: 2 μg injected per larva; observed over 23 days
Procedure: Injection test with Periplaneta larvae
Test animals: Periplaneta americana, third instar
The compounds are prepared in aqueous solution (0.1 N acetic acid) and diluted as required. Using a 10 μl Hamilton syringe, 1 μl of the 20 or 2 μg were injected behind the 3rd pair of legs closely underneath the abdominal cavity of the cockroach larvae. Solvent (0.1 N acetic acid) was applied as control and 10 μg allosamidine as positive control. Batches of twenty cockroach larvae were treated per concentration and compound. On day 1, the control mortality and the initial mortality caused essentially by artificial effects during the injection were determined. If this initial mortality was less than 50%, the experiment was continued. The cockroach larvae were placed on filter paper in standard Petri dishes (9.5 cm Ø), and a quarter of a wafer was added. The ecdysis rate of the control animals and of the treated cockroach larvae was observed over a period of 23 days, and larval mortality and inhibition of ecdysis were recorded after days 1, 5 and 23. The efficacy is calculated using the following formula. [formula]

[4] = biological target: Lucilia cuprina chitinase; assay: Chitinase inhibitory activity (IC50) against Lucilia cuprina chitinase; assay type: biochemical
Procedure: as §1

[5] = test system: Streptomyces griseus chitinase (Sigma); assay: Chitinase inhibitory activity against Streptomyces griseus chitinase; assay type: biochemical; details: at 100 μM (37° C.)
Procedure: as §1

For `Cc1cc2nc3c(=O)[nH]c(=O)nc-3n(C[C@H](O)[C@H](O)[C@H](O)CO)c2cc1C` [compound 1, riboflavin], the “inhibition of the Vibrio alginolyticus chitinase” value [1] was “no inhibition”, the “inhibition of the Lucilia cuprina endochitinase” value ([2]; 10 μM) was >>50% and the “inhibition of the Lucilia cuprina endochitinase” value ([2]; 100 μM) was >>50%. The “inhibition of the Lucilia cuprina endochitinase” value ([2]; 200 μM) was >>>50%, the “mortality against Periplaneta americana third instars” value [3] was “More than 50%” and the IC50 ([4]; 20° C.) was 380 nM. For the same compound, the IC50 ([4]; 37° C.) was 2100 nM and the “inhibition of the Streptomyces griseus chitinase” value [5] was “no inhibition”.
